Assays:
[1] = system: Sprague-Dawley rats; assay: Withdrawal latencies after noxious thermal (laser) stimulation to the ears or hindpaws after intranasal administration; assay type: in vivo, rat; settings: 10 μg intranasal, tested five minutes after final application
Source text: Activity of an analgesic agent can be tested in a rat model by studying treatment-induced changes in latencies (times) of withdrawal in response to noxious heating of the skin, typically applying a stimulus to an ear or a hindpaw. Thus, application of coherent or non-coherent (non-laser) radiant heat to the ear or hindpaw will elicit rapid withdrawal movements. […] Transmucosal or transdermal administration of analgesic agents can be tested for regional and/or systemic analgesia. After administration of an analgesic agent an increase in latency to withdrawal time of the ear would indicate regional analgesia. A change in the latency to withdrawal time of the hindpaw would indicate whether there was a systemic analgesic effect, i.e. no change in the latency to withdrawal time indicates no systemic effect, while an increase in latency to withdrawal time would indicate a systemic effect.
Rats are housed in a 12/12-hour light/dark environment and are provided food and water ad libitum. […]
Sprague-Dawley rats (Charles River Laboratories) were lightly anesthetized with urethane and placed with minimal restraint on a heating pad to maintain their body temperature at 37° C. […] Baseline withdrawal latencies were measured by delivering 4 separate stimuli with a resting period of approximately 15 minutes between each stimulus. […] As described above, testing sessions were videotaped and analyzed. […]

[2] = system: severe headaches secondary to adult hydrocephalus and multiple shunt surgeries; assay: Intranasal oxytocin in a patient, pain rating on VAS (0-10); assay type: in vivo, human
Experimental: (§1) Upon presentation at the clinic, a patient is asked for a pain assessment (0-10 rating on VAS). The VAS is an 11-point numerical pain rating scale wherein 0 equals “no pain” and 10 equals the “worst pain imaginable”. The analgesic agent is self-administered by nasal applicator. Initially, one puff is given in each nostril. After waiting 15 minutes the patient is asked again for a pain rating and any side effects (e.g. sedation) are assessed. If pain is still present, another puff per nostril is self-administered. After another 15 minutes, pain and side-effects are assessed. If pain is still present, two mote puffs of agent are self-administered. After 15 minutes, pain is rated again, and side effects are assessed. If pain is still present, a final two puffs are given. After another 15 minutes and at 15, 30 and 60 minutes after that, pain and side-effects are re-assessed.
The patient's pain had been unrelieved by treatment with triptans, ergotamines, and high-dose opiates. The patient presented with a pain rating of 8 out of 10 as assessed by the procedure described herein. The patient self-administered oxytocin intranasally at a dose of 4 IU in 0.2 ml. […] Pain relief lasted approximately 24 hours, only briefly interrupted by mild head pain that occurred with activity.
This patient returned to the clinic approximately 1 month later. At this appointment the patient rated the pain as an 8 out of 10. Unbeknownst to them, the patient was first given an intranasal administration of normal saline, in approximately the same volume as used for the oxytocin administration (0.2 ml). No analgesic or other effect was reported by the patient. After waiting 30 minutes, the patient was administered 4 IU of oxytocin intranasally as described above. Within 20-25 minutes, the patient reported that the pain was completely gone. […] Pain returned approximately 24 hours after treatment.

[3] = system: “stress” or tension headache; assay type: in vivo, human; settings: 4 IU in 0.2 ml intranasal
Experimental: as §1
A patient was seen reporting a “stress” or tension headache for which they rated their head pain as a 5 out of 10 as assessed by the procedure described herein. The patient was treated with oxytocin administered intranasally at a dose of 4 IU in 0.2 ml. Approximately 10-15 minutes after administration, the patient reported that the pain was completely gone. […] The patient reported being pain free for approximately 48 hours.

[4] = system: “hangover” headache; assay: Intranasal oxytocin in a patient, pain rating on VAS (0-10); assay type: in vivo, human; settings: 24 IU intranasal, baseline 8 out of 10
Experimental: as §1
A patient was seen reporting a “hangover” headache which was rated as an 8 out of 10 as assessed by the procedure described herein. The patient was treated with oxytocin administered intranasally at a dose of 24 IU. The patient reported that the headache completely resolved within 15 minutes.

[5] = system: “cluster” headache; assay: Intranasal oxytocin in a patient with headache; assay type: in vivo, human; settings: 16 IU intranasal
Experimental: as §1
A patient was seen reporting having an ongoing strong headache with occasional boring pain on the left side. The pain had lasted for more than 2 weeks and had been diagnosed as a “cluster” headache. The patient was treated with oxytocin administered intranasally at a dose of 16 IU. The patient reported that their headache completely resolved within 15 minutes and relief lasted for 24 hours.

[6] = system: daily migraine; assay: Intranasal oxytocin in a patient, pain rating on VAS (0-10); assay type: in vivo, human; settings: 24 IU intranasal, baseline pain rating 4 out of 10
Experimental: as §1
A patient was seen after reporting a daily migraine which they rated as a mild to moderate headache with a pain rating of 4 out of 10 as assessed by the procedure described herein. The patient was treated with oxytocin administered intranasally at a dose of 24 IU. The patient reported that the oxytocin decreased the pain to a rating of 2 out of 10.

[7] = system: single pain sensing nerve cells in the trigeminal ganglion; assay: Trigeminal ganglion nerve impulses in response to noxious laser pulses to the face; assay type: in vivo, rat; settings: 10 nmoles applied to the nose, post- vs pre-oxytocin
Experimental: Sprague-Dawley rats (Charles River Laboratories) were anesthetized with isofluorane and a platinum electrode was inserted transcranially into the trigeminal ganglion. Nerve impulses (action potential) were recorded from single pain sensing nerve cells in the trigeminal ganglion in response to application of noxious laser pulses to the face of the rats. After recording responses to several identical laser pulses, 10 nmoles of oxytocin was applied to the nose of the rats. Thereafter, identical laser pulses were once again applied and recorded.

[8] = system: trigeminal nucleus caudalis wide dynamic range (WDR) neurons; assay: Electrical stimulation-induced responses, single unit extracellular recordings in trigeminal nucleus caudalis; assay type: in vivo, rat
Experimental: Male Sprague-Dawley rats (Charles River Laboratories) were anesthetized with isoflurane and used in the following experiments. In the anesthetized rats, single unit, extracellular recordings were performed in trigeminal nucleus caudalis while stimulating the ipsilateral facial skin with constant-current bipolar electrical stimulation. Epoxylate-insulated, tungsten microelectrodes (10 MOhm) were used under stereotaxic coordinate control.
Shown are responses (action potentials per 30 stimuli) to repeated stimulation of a rat's face before oxytocin administration (pre-oxytocin). After administration with oxytocin at approximately 0.1 IU, responses were recorded every five minutes for 65 minutes. A second administration of oxytocin at the same dosage was administered at approximately 70 minutes after the first dose. The approximate site of the administration of the electrical stimulation is indicated by the black spot on a map of the rat's face (FIG. 3B).

[9] = first visit, 4 IU in 0.2 ml intranasal
[10] = first visit, 4 IU intranasal, baseline pain rating 8 out of 10
[11] = approximately 0.1 IU intranasal, first administration
[12] = second dose, same dosage, approximately 70 minutes after the first

## CC[C@H](C)[C@@H]1NC(=O)[C@H](Cc2ccc(O)cc2)NC(=O)[C@@H](N)CSSC[C@@H](C(=O)N2CCC[C@H]2C(=O)N[C@@H](CC(C)C)C(=O)NCC(N)=O)NC(=O)[C@H](CC(N)=O)NC(=O)[C@H](CCC(N)=O)NC1=O [oxytocin, Cys-Tyr-Ile-Gln-Asn-Cys-Pro-Leu-Gly]
[1]; laser to ears
  regional analgesic effect (ear withdrawal latency): achieved a regional analgesic effect in the head region
[1]; laser to hindpaws
  systemic analgesic effect (hindpaw withdrawal latency): without a systemic analgesic effect at the hindpaw
[2]; [9]
  sedation: mild sedation
  time for sedation to clear: ≤ 10 min
  time to onset of sedation: ≤ 5 min
[2]; first visit, 4 IU intranasal
  breast tenderness the day after treatment: some breast tenderness
  duration of pain relief: approximately 24 hours
  time for breast tenderness to resolve: ≤ 24 h
[2]; [10]
  headache pain by 15 minutes after administration: significantly reduced
  time until pain completely gone: ≤ 30 min
[2]; second visit about 1 month later, 4 IU intranasal 30 minutes after saline, baseline 8 out of 10
  time until pain completely gone: 20 to 25 min
[2]; second visit, 4 IU intranasal
  breast tenderness the following day: nor was there any breast tenderness
  sedation: no observed sedation
  time until pain returned after treatment: approximately 24 hours
[3]
  duration pain free: approximately 48 hours
[3]; baseline pain 5 out of 10
  time until pain completely gone: 10 to 15 min
[4]
  time until headache completely resolved: ≤ 15 min
[5]
  duration of relief: 24 h
  time until headache completely resolved: ≤ 15 min
[6]
  pain rating after treatment: 2 out of 10
[7]
  neuronal response to noxious laser pulses (average nerve impulses per laser pulse): significantly (p<0.05) reduced
[8]; [11]
  responses (action potentials per 30 stimuli) after first administration: significant reduction in responses
  time of beginning of reduction in responses after first administration: 10 min
  time post treatment until which reduction continued (responses then began to increase): 50 min
[8]; [12]
  responses (action potentials per 30 stimuli) after second administration: significant reduction in responses
  time to reduction in responses after second administration: ≤ 10 min
